The compounds below were run against T1, Interstitial collagenase (Homo sapiens, UniProt P03956) (assay: Inhibitory activity towards human recombinant fibroblast collagenase).
T1 sequence (P03956 whole entry): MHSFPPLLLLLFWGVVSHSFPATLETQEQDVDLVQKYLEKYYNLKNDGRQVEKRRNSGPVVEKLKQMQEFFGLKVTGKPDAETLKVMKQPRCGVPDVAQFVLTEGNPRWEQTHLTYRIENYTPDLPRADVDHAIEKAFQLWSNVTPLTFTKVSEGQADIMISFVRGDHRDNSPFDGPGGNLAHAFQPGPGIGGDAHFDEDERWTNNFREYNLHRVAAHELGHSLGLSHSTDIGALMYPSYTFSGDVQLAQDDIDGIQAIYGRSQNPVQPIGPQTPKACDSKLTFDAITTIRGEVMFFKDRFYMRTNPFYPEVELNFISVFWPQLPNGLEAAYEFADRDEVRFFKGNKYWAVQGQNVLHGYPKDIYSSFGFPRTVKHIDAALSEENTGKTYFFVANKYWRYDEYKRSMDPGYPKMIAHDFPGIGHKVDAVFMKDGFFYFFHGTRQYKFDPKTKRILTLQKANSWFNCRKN

SMILES | IC50
CC(C)S[C@H](CC(=O)NO)C(=O)N[C@@H](Cc1ccccc1)C(=O)NCc1ccccc1 | 1.9 µM
O=C(C[C@@H](Cc1ccccc1)C(=O)N[C@@H](Cc1ccccc1)C(=O)NCc1ccccc1)NO | 7 µM
O=C(C[C@@H](CC1CCCC1)C(=O)N[C@@H](Cc1ccccc1)C(=O)NCc1ccccc1)NO | 0.02 µM
O=C(C[C@@H](CCc1ccccc1)C(=O)N[C@@H](Cc1ccccc1)C(=O)NCc1ccccc1)NO | 4.1 µM
O=C(C[C@@H](CC1CCCCC1)C(=O)N[C@@H](Cc1ccccc1)C(=O)NCc1ccccc1)NO | 4.6 µM
C[C@H](CC(=O)NO)C(=O)N[C@@H](Cc1ccccc1)C(=O)NCc1ccccc1 | > 10 µM
O=C(C[C@H](C(=O)N[C@@H](Cc1ccccc1)C(=O)NCc1ccccc1)c1ccccc1)NO | 17 µM
O=C(CCC(=O)N[C@@H](Cc1ccccc1)C(=O)NCc1ccccc1)NO | > 10 µM
O=C(C[C@@H](CCC1CCCCC1)C(=O)N[C@@H](Cc1ccccc1)C(=O)NCc1ccccc1)NO | > 10 µM
CC(C)C[C@@H](CC(=O)NO)C(=O)N[C@@H](Cc1ccccc1)C(=O)NCc1ccccc1 | > 10 µM
O=C(C[C@H](C(=O)N[C@@H](Cc1ccccc1)C(=O)NCc1ccccc1)C1CCCCC1)NO | 1.5 µM
CC(C)C[C@H](CC(=O)NO)C(=O)N[C@@H](Cc1ccccc1)C(=O)NCc1ccccc1 | 0.03 µM
CN(C)C[C@H](CC(=O)NO)C(=O)N[C@@H](Cc1ccccc1)C(=O)NCc1ccccc1 | > 10 µM
O=C(C[C@H](C(=O)N[C@@H](Cc1ccccc1)C(=O)NCc1ccccc1)c1cccc2ccccc12)NO | > 10 µM
O=C(C[C@@H](Cc1ccc2ccccc2c1)C(=O)N[C@@H](Cc1ccccc1)C(=O)NCc1ccccc1)NO | > 10 µM
O=C(C[C@H](C(=O)N[C@@H](Cc1ccccc1)C(=O)NCc1ccccc1)c1ccc(-c2ccccc2)cc1)NO | > 10 µM
